Measurements published in patent US8163737B2 (Vertex Pharmaceuticals Incorporated, priority 2006, dated 2012).
pIC50, pKi: −log10 of the molar value.

How the values were obtained:
endogenous CGRP receptor = endogenous CGRP receptor (Homo sapiens, UniProt O60894+Q16602); experiment: CGRP functional antagonism using SK-N-MC-BLA (4C10), β-lactamase transcriptional reporter assay; format: cell-based; details: SK-N-MC (4C10) cells, inhibition of β-lactamase expression in the presence of 200 pM CGRP
[1] = molecular target: T1, CGRP receptor (SK-N-MC membrane) (Homo sapiens, UniProt O60894+Q16602); experiment: I125-CGRP binding displacement assay on purified SK-N-MC membrane
T1 construct: Purified SK-N-MC membrane was purchased from Perkin Elmer; purchased Perkin Elmer; host or cells: SK-N-MC membrane
Protocol: Purified SK-N-MC membrane was purchased from Perkin Elmer. The membrane was thawed quickly and placed on ice. The compounds were diluted with CGRP binding solution (25 mM Tris-HCl, pH7.4, 5 mM MgCl2, 0.1% BSA and 0.05% Tween). The membrane was diluted 1:20 with the binding solution and homogenized with Tissue Matster-50 Homogenizer (Omni International) for 30 sec. The homogenized membrane was added to compounds in the binding solution. […] After 2 hour incubation at room temperature, the reaction was stopped by rapid filtration through 0.5% PEI treated GF/C filter plate (Perkin Elmer) and the filter plate was washed with ice-cold washing solution (50 mM Tris HCl, pH7.4, 5 mM MgCl2 and 0.1% BSA) using cell harvestor (Tomtec). The radioactivity of the filter plates were read on Topcount (Packard). The nonspecific binding was determined in the control reaction where 1 uM unlabelled CGRP was preincubated with the membrane prior to I125-CGRP addition. The total binding was determined in the control reaction of the membrane and I125-CGRP in the absence of compound. The percent displacement of I125-CGRP with compounds was calculated using nonspecific and total binding controls. The curve fitting was carried out using MOD3.

T1 sequence (Q16602 23-461): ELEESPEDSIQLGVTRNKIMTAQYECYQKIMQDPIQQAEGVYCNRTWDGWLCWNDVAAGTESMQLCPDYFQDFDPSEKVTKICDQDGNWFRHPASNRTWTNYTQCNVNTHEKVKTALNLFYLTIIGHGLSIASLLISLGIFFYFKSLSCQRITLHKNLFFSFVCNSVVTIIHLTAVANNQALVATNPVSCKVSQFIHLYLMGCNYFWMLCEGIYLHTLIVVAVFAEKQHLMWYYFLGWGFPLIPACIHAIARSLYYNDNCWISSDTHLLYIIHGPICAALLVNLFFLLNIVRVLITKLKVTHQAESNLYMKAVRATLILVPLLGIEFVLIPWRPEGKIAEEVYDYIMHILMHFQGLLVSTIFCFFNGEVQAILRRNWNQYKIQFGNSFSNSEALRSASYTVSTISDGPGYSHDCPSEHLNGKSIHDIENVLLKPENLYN
T1 sequence (O60894 27-148): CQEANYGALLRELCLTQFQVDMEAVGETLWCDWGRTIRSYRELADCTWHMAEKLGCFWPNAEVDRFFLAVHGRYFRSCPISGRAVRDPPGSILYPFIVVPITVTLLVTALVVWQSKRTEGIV
endogenous CGRP receptor, sequence (Q16602 23-461): as the sequence (Q16602 23-461) above
endogenous CGRP receptor, sequence (O60894 27-148): as the sequence (O60894 27-148) above

In the case of CC(C)(C)CCN1C(=O)[C@H](CC(=O)N2CCC(N3CCc4ccccc4NC3=O)CC2)SC1c1cccc(F)c1N1CC[C@H](O)C1 (some centres unmarked) [Compound 486], the pIC50 (endogenous CGRP receptor) was > 6.00 and the pKi [1] was > 6.00.

For CC(C)(C)CCN1C(=O)[C@H](CC(=O)N2CCC(n3c(=O)[nH]c4ncccc43)CC2)SC1c1cccc(F)c1N1CCC(F)(F)C1 (some centres unmarked) [Compound 482], the pIC50 (endogenous CGRP receptor) was 5.30 to 6.00 and the pKi [1] was > 6.00.

For CC(C)(C)N1CCN(c2c(F)cccc2[C@H]2S[C@@H](CC(=O)N3CCC(N4CCc5ccccc5NC4=O)CC3)C(=O)N2CC2CCCCC2)CC1 [Compound 514], the pIC50 (endogenous CGRP receptor) was > 6.00 and the pKi [1] was > 6.00.

For CC(C)CCN1CCC(c2ncc(C3S[C@@H](CC(=O)N4CCC(N5CCc6ccccc6NC5=O)CC4)C(=O)N3CCC(C)(C)C)s2)CC1 (some centres unmarked) [Compound 519], the pIC50 (endogenous CGRP receptor) was > 6.00 and the pKi [1] was > 6.00.

CC(C)(C)CCN1C(=O)[C@H](CC(=O)N2CCC(N3CCc4ccccc4NC3=O)CC2)SC1c1cccc(F)c1N1CCC(F)(F)C1 (some centres unmarked) [Compound 483] was tested, and the pIC50 (endogenous CGRP receptor) was < 5.30 and the pKi [1] was > 6.00.

With CC(C)(C)CCN1C(=O)[C@H](CC(=O)N2CCC(N3CCc4ccccc4NC3=O)CC2)S[C@@H]1c1cccc(F)c1C1CCNCC1 [Compound 552, 3-(1-(2-((2R,5S)-2-(3-fluoro-2-(piperidin-4-yl)phenyl)-3-(3,3-dimethylbutyl)-4-oxothiazolidin-5-yl)acetyl)piperidin-4-yl)-4,5-dihydro-1H-benzo[d][1,3]diazepin-2(3H)-one] the pIC50 (endogenous CGRP receptor) was > 6.00 and the pKi [1] was > 6.00.

In the case of CC(C)(C)CCN1C(=O)C(CC(=O)N2CCC(N3Cc4ccccc4NC3=O)CC2)SC1c1ccccc1N1CCN(CCO)CC1 (centres unmarked) [Compound 371], the pIC50 (endogenous CGRP receptor) was > 6.00 and the pKi [1] was > 6.00.

For CC(C)(C)N1CCN(c2c(F)cccc2C2S[C@@H](CC(=O)N3CCC(N4CCc5ccccc5NC4=O)CC3)C(=O)N2CC2CCCCC2)CC1 (some centres unmarked) [Compound 515], the pIC50 (endogenous CGRP receptor) was > 6.00 and the pKi [1] was > 6.00.

With CN1CCN(c2ccccc2[C@@H]2S[C@](C)(CC(=O)N3CCC(N4CCc5ccccc5NC4=O)CC3)C(=O)N2CCC(C)(C)C)CC1 [Compound 375] the pIC50 (endogenous CGRP receptor) was > 6.00 and the pKi [1] was > 6.00.

In the case of CC(C)CN1CCN(c2ccccc2[C@H]2S[C@@H](CC(=O)N3CCC(N4CCc5ccccc5NC4=O)CC3)C(=O)N2CCC(C)(C)C)C(=O)C1 [Compound 541], the pIC50 (endogenous CGRP receptor) was > 6.00 and the pKi [1] was > 6.00.

In the case of CC(C)(C)N1CCN(c2c(F)cccc2C2S[C@@H](CC(=O)N3CCC(N4CCc5ccccc5NC4=O)CC3)C(=O)N2Cc2ccccc2)CC1 (some centres unmarked) [Compound 539], the pIC50 (endogenous CGRP receptor) was > 6.00 and the pKi [1] was > 6.00.

For COc1ccc(C2SC(CC(=O)N3CCC(n4cc(-c5ccccc5)[nH]c4=O)CC3)C(=O)N2CCC(C)C)cc1 (centres unmarked) [Compound 286], the pIC50 (endogenous CGRP receptor) was 5.30 to 6.00 and the pKi [1] was < 5.30.

CC(C)(C)CCN1C(=O)[C@H](CC(=O)N2CCC(n3c(=O)[nH]c4ncccc43)CC2)SC1c1cccc(F)c1N1CCN(C(C)(C)C)CC1 (some centres unmarked) [Compound 437] was tested, and the pIC50 (endogenous CGRP receptor) was > 6.00 and the pKi [1] was > 6.00.

With O=C(CC1SC(c2ccccc2)N(CCc2ccncc2)C1=O)N1CCC(N2Cc3ccccc3NC2=O)CC1 (centres unmarked) [Compound 236] the pIC50 (endogenous CGRP receptor) was 5.30 to 6.00 and the pKi [1] was > 6.00.

With CN(C)c1ccccc1C1SC(CC(=O)N2CCC(N3Cc4ccccc4NC3=O)CC2)C(=O)N1CCC(C)(C)C (centres unmarked) [Compound 198] the pIC50 (endogenous CGRP receptor) was > 6.00 and the pKi [1] was > 6.00.

CC(C)(C)CCN1C(=O)C(CC(=O)N2CCC(N3Cc4ccccc4NC3=O)CC2)SC1c1ccccc1-n1ccnc1 (centres unmarked) [Compound 60] was tested, and the pIC50 (endogenous CGRP receptor) was > 6.00 and the pKi [1] was > 6.00.

In the case of O=C(CC1SC(c2ccccc2)N(c2ccccc2)C1=O)N1CCC(N2Cc3ccccc3NC2=O)CC1 (centres unmarked) [Compound 187], the pIC50 (endogenous CGRP receptor) was 5.30 to 6.00 and the pKi [1] was > 6.00.

O=C(CC1SC(c2ccccc2)N(CC2CCCCC2)C1=O)N1CCC(N2CCc3ccccc3NC2=O)CC1 (centres unmarked) [Compound 147] was tested, and the pIC50 (endogenous CGRP receptor) was > 6.00 and the pKi [1] was > 6.00.

In the case of CC(C)(C)CCN1C(=O)[C@H](CC(=O)N2CCC(n3c(=O)[nH]c4ncccc43)CC2)S[C@H]1c1cccc(F)c1N1CCC(O)C1 (some centres unmarked) [Compound 462], the pIC50 (endogenous CGRP receptor) was > 6.00 and the pKi [1] was > 6.00.

CC(C)CCN1C(=O)C(CC(=O)N2CCC(N3Cc4ccccc4NC3=O)CC2)SC1c1ccc(F)cc1F (centres unmarked) [Compound 212] was tested, and the pIC50 (endogenous CGRP receptor) was > 6.00 and the pKi [1] was > 6.00.

In the case of CC(C)(C)CCN1C(=O)[C@H](CC(=O)N2CCC(N3CCc4ccccc4NC3=O)CC2)SC1c1ccccc1N1CCNCC1=O (some centres unmarked) [Compound 512], the pIC50 (endogenous CGRP receptor) was > 6.00 and the pKi [1] was > 6.00.

In the case of CC(C)(C)CCN1C(=O)C(CC(=O)N2CCC(n3c(=O)[nH]c4ccccc43)CC2)SC1c1ccccc1-n1cccn1 (centres unmarked) [Compound 297], the pIC50 (endogenous CGRP receptor) was > 6.00 and the pKi [1] was > 6.00.
